The source of these data is patent US11299435B2, “Urea-based composition and method for the manufacture thereof” (Yara International ASA, priority 2017, dated 2022).

What all share (format): physicochemical
Series [1] can be described thus: Stability of nBTPT melt-mixed in urea granules during storage (HPLC nBTPT content). The protocol: For pilot scale experiments applying nBTPT in urea, nBTPT, as powder or as liquid formulations, was mixed in urea in the following way: nBTPT was added to urea melt, with and/or without the presence of an alkaline stabilizer and subsequently, this mixture was granulated in a fluidized bed granulator.
nBTPT in urea granules, with and/or without the presence of an alkaline stabilizer, were produced in the urea pilot plant in Sluiskil (Yara International ASA). This pilot plant has a batch capacity—after sieving—of about 50 kg of on-spec product. It basically consists of a stirred urea preparation vessel with an active volume of about 150 litres and a fluidized bed granulator of the UFT-type, equipped with a spraying nozzle of the spiral-type or HFT-type (EP 1701798 B1, 2005, Yara International ASA).
The samples were stored under several conditions, dependent on the type of samples:
(§1) Closed plastic container at room temperature (20° C.)
Open to air at 20° C. with a relative humidity of 80%
For some samples, an accelerated stability test was done storing these samples at elevated temperatures:
40° C. closed plastic container
(§2) 50° C. closed plastic container
(§3) 70° C. closed plastic container
(§4) HPLC analysis of nBTPT is done as described in the procedure CEN 15688-2007.
In the first experiment, 500 ppm nBTPT powder was added into urea melt, with and/or without the presence of an alkaline stabilizer, and in a next step this melt composition was converted into urea granules in a fluidized bed granulator. Subsequently, the granules were stored for 98 days at 40° C. in closed plastic containers and the decomposition of nBTPT was followed.
In a second experiment, the effect of other alkaline stabilizers such as CaO and CaCO3 was shown in comparison with NaOH. 500 ppm nBTPT powder was added into urea melt, containing an alkaline stabilizer, and in a next step, this melt composition was converted into urea granules in a fluidized bed granulator. Subsequently, the granules were stored for 109 days at 50° C. in closed plastic containers and the decomposition of nBTPT was followed.
On top of that, the granules were also stored for 1564 days (more than 4 years!) at room temperature (20° C.) in closed plastic containers and the decomposition of nBTPT was followed. […] With the addition of 1% CaO or CaCO3 a recovery of nBTPT higher than 40% was found after a long storage period of more than 4 years at room temperature.
In a third experiment, 500 ppm nBTPT powder was added into a urea melt, with and/or without the presence of 0.1% B as borax, and in a next step this melt composition was converted into urea granules in a fluidized bed granulator. Subsequently, the granules were stored for 57 days at 20° C./80% R.H. in open plastic containers and the decomposition of nBTPT was followed.
In a fourth experiment, 600 ppm nBTPT powder was added into a urea melt, with and/or without the presence of an alkaline stabilizer, and in a next step this melt composition was converted into urea granules in a fluidized bed granulator. Subsequently, the granules were stored for 15 days at 70° C. in closed plastic containers and the decomposition of nBTPT was followed.

Series [2] can be described thus: Stability of nBTPT applied on moisturized urea granules during storage (HPLC nBTPT content). As to conditions: vs no stabilizer, closed plastic containers, 70° C., 15 days (FIG. 6). The protocol:
For lab scale experiments for applying nBTPT on urea, nBTPT, as powder or as liquid formulations, was applied onto urea by adding 1.2 kg of urea to a lab scale drum. In a next step, the nBTPT material, with and/or without the presence of an alkaline stabilizer, was slowly added. A residence time of 10 minutes was applied and the rotating speed of the drum was consequently the same in each experiment. Larger scale experiments with amounts up to 40 kg of fertilizer material were performed in a concrete mixer.
as §3, §4
600 ppm nBTPT powder was mixed with and/or without the presence of an alkaline stabilizer and subsequently added on urea granules, which were moisturized from 0.20% H2O to 0.60% H2O. This moisturization was done to create a higher moisture level of the urea granules to simulate moisture take up during storage in market conditions.
Subsequently, the urea granules were stored for 15 days at 70° C. in closed plastic containers and the decomposition of nBTPT was followed.

The nature of series [3]: Stability of nBTPT in solution with added alkaline compound (HPLC nBTPT content). As to conditions: closed plastic containers.
From the text: Lab scale experiments with nBTPT in solution: • An aqueous solution of nBTPT was made by dissolving 3 g nBTPT powder in 1 L water. In a next step an alkaline compound could be added. • A solution of 17.5% nBTPT in PG was made by dissolving step by step 17.5 g nBTPT powder in 82.5 g PG. In a next step, an alkaline compound could be added. • The commercial liquid nBTPT formulation Agrotain® Ultra was mixed with and/or without the presence of an alkaline stabilizer
as §1, §2, §4
In a first experiment, a solution of 17.5% nBTPT in PG was made and in a next step an alkaline compound was added. Subsequently, the solutions were stored in closed plastic containers for 5 days at room temperature (20° C.) and subsequently 7 days at 50° C. and the decomposition of nBTPT was followed.
In a second experiment, an alkaline compound was added to Agrotain® Ultra. Subsequently, the nBTPT solutions were stored in closed plastic containers for 5 days at room temperature (20° C.) and the decomposition of nBTPT was followed.
In a third experiment, an aqueous solution of 3.0 g nBTPT in 1 L water was made and in a next step an alkaline compound was added. Subsequently, the aqueous solutions were stored in closed plastic containers for 5 days at room temperature (20° C.) and the decomposition of nBTPT was followed.

The structures appear in SMILES notation.

In the case of `CCCCNP(N)(N)=S` [nBTPT, N-(n-butyl) thiophosphoric triamide], the “stability of nBTPT in urea” value in series [1] (500 ppm nBTPT powder in urea + 1% CaCO3, compared with urea + 500 ppm NaOH, closed plastic containers, 50° C., 109 days (FIG. 2)) is “even higher stability”; in series [1] (500 ppm nBTPT powder in urea + 1% CaCO3, compared with urea + 500 ppm NaOH, closed plastic containers, room temperature (20° C.), 1564 days (FIG. 3)), “even higher stability”; in series [1] (500 ppm nBTPT powder in urea + 1% CaO, compared with urea + 500 ppm NaOH, closed plastic containers, 50° C., 109 days (FIG. 2)) it was “even higher stability”; in series [1] (500 ppm nBTPT powder in urea + 1% CaO, compared with urea + 500 ppm NaOH, closed plastic containers, room temperature (20° C.), 1564 days (FIG. 3)), “even higher stability”. Also, the “effect on the stability of nBTPT in urea granules during storage” value is “positive effect” in series [1] (500 ppm nBTPT powder in urea + NaOH (200, 500, 1000 ppm) vs no NaOH, closed plastic containers, 40° C., 98 days, stability increases with NaOH dosage (FIG. 1)); “big positive effect” in series [1] (600 ppm nBTPT powder in urea + 1% CaCO3 vs no stabilizer, closed plastic containers, 70° C., 15 days (FIG. 5)); “big positive effect” in series [1] (600 ppm nBTPT powder in urea + 1% CaO vs no stabilizer, closed plastic containers, 70° C., 15 days (FIG. 5)); “big positive effect” in series [1] (nBTPT powder in urea + 0.1% B as borax vs no borax, open plastic containers, 20° C./80% R.H., 57 days (FIG. 4)). Besides, the “stability of the urease inhibitor in the composition according to the invention” value in series [1] (bagged conditions without the presence of a head space (exclusion of moisture and atmospheric gasses)) was “further increased”. The “effect on the stability of nBTPT on urea granules during storage” value in series [2] ([600 ppm nBTPT powder + 2600 ppm MgO] on urea moisturized from 0.20% to 0.60% H2O) and in series [2] ([600 ppm nBTPT powder + 6000 ppm CaCO3] on urea moisturized from 0.20% to 0.60% H2O) was “positive effect” each time. Also, the “effect on the stability of nBTPT in solution” value in series [3] (17.5% nBTPT in propylene glycol (PG) + 5% CaO vs none, 5 days at 20° C. then 7 days at 50° C. (FIG. 7)) is on record as “negative effect”; in series [3] (17.5% nBTPT in propylene glycol (PG) + 5% NaOH vs none, 5 days at 20° C. then 7 days at 50° C. (FIG. 7)) it was “negative effect”; in series [3] (aqueous solution 3 g nBTPT/L water + 1% CaO vs none, 5 days at 20° C. (FIG. 9)), “negative effect”; in series [3] (aqueous solution 3 g nBTPT/L water + 1% Na2CO3 vs none, 5 days at 20° C. (FIG. 9)) it was “negative effect”; in series [3] (aqueous solution 3 g nBTPT/L water + 1% NaHCO3 vs none, 5 days at 20° C. (FIG. 9)), “negative effect”; in series [3] (aqueous solution 3 g nBTPT/L water + 1% NaOH vs none, 5 days at 20° C. (FIG. 9)) it was “negative effect”.
